Series [1] can be described thus: Inhibition of PKA.
For series [2], the target named is T1, Rho-associated protein kinase 2 (Homo sapiens, UniProt O75116). Briefly: Inhibition of ROCK2.
Series [3] is described as follows: Selectivity for ROCK2 over PKA.
The target in series [4] is T1, Rho-associated protein kinase 2.
Description: Inhibition of ROCK2 assessed as myosin light chain phosphorylation by cell-based assay
The nature of series [5]: Metabolic stability in rat liver microsomes assessed as half life. Format: ADME, Microsome. (In general: Microsomes from liver hold many membrane-bound enzymes, among them those of drug oxidation.)
Series [6] in a line: Metabolic stability in human liver microsomes assessed as half life. Format: ADME, Microsome.
Series [7] is described as follows: Inhibition of p38.
Series [8] deals with Rho-associated protein kinase 1 (Homo sapiens, UniProt Q13464). The experiment in a line: Inhibition of ROCK1.
Chain of Rho-associated protein kinase 1 (Q13464 whole entry): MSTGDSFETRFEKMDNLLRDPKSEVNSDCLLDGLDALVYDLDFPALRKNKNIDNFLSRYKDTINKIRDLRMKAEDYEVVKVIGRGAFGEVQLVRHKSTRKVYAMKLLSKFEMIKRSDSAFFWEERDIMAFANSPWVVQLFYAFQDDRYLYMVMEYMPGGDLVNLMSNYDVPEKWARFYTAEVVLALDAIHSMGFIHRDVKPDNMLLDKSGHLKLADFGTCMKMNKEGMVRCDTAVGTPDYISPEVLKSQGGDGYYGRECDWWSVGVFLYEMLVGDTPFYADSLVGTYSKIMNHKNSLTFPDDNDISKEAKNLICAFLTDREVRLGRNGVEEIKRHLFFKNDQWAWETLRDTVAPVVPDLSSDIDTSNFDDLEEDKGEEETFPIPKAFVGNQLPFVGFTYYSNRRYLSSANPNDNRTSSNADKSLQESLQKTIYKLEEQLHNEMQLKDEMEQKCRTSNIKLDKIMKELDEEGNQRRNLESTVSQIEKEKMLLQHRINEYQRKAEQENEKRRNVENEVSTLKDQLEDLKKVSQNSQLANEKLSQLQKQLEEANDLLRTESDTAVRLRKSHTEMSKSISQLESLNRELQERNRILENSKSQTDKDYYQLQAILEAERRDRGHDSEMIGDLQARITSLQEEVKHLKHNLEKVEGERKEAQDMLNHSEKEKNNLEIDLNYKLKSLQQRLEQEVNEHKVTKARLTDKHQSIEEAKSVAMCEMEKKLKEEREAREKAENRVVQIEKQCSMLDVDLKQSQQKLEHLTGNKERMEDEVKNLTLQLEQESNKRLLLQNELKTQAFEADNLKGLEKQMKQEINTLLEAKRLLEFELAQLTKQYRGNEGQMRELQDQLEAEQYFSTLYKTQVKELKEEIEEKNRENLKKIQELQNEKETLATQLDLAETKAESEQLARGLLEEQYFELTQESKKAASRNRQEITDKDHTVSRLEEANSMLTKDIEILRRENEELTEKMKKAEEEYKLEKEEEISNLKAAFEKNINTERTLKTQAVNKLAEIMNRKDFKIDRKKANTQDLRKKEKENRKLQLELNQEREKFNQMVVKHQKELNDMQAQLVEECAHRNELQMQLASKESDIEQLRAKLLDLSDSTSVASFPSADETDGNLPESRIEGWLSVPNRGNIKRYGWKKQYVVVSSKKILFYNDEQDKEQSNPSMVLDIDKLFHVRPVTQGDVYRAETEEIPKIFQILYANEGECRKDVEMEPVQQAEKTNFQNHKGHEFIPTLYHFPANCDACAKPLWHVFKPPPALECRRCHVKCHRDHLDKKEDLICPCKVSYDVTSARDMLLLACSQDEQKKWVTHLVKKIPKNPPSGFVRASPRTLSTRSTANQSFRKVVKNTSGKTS
Series [9] deals with Mitogen-activated protein kinase 10 (Homo sapiens, UniProt P53779). Briefly: Inhibition of JNK3.
Chain of Mitogen-activated protein kinase 10 (P53779 whole entry): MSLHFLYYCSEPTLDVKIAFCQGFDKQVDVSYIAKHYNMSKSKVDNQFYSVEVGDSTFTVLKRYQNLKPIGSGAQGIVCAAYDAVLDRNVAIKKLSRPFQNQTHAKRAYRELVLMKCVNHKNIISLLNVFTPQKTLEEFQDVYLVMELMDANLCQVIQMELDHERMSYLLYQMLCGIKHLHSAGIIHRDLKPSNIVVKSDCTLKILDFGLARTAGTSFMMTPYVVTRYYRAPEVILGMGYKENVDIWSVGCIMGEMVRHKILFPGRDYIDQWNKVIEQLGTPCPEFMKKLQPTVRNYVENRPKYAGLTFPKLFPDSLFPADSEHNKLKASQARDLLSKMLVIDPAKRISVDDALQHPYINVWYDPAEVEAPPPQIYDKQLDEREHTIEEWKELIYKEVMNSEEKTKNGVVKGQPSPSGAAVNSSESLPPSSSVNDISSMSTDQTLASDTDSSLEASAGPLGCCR
Series [10] can be described thus: Oral bioavailability in rat. Format: ADME, organism-based. Conditions: in vivo.
Series [11] addresses Serine/threonine-protein kinase MRCK alpha (Homo sapiens, UniProt Q5VT25). The experiment in a line: Inhibition of MRCKalpha.
Series [12] in a line: Clearance in rat. The class given is ADME, organism-based. Conditions: in vivo.

The structures appear in SMILES notation.

The term IC50 denotes the midpoint of a concentration-inhibition curve. Read a low IC50 as inhibition by little substance. As a reminder, the half-life is the time needed for the level to fall by half in the phase considered. As usually defined, the bioavailability is dose-corrected exposure relative to a reference, in per cent. Low readings indicate poor availability, high ones good availability. For orientation: clearance means the rate of elimination divided by the concentration.

T1 sequence (O75116 whole entry): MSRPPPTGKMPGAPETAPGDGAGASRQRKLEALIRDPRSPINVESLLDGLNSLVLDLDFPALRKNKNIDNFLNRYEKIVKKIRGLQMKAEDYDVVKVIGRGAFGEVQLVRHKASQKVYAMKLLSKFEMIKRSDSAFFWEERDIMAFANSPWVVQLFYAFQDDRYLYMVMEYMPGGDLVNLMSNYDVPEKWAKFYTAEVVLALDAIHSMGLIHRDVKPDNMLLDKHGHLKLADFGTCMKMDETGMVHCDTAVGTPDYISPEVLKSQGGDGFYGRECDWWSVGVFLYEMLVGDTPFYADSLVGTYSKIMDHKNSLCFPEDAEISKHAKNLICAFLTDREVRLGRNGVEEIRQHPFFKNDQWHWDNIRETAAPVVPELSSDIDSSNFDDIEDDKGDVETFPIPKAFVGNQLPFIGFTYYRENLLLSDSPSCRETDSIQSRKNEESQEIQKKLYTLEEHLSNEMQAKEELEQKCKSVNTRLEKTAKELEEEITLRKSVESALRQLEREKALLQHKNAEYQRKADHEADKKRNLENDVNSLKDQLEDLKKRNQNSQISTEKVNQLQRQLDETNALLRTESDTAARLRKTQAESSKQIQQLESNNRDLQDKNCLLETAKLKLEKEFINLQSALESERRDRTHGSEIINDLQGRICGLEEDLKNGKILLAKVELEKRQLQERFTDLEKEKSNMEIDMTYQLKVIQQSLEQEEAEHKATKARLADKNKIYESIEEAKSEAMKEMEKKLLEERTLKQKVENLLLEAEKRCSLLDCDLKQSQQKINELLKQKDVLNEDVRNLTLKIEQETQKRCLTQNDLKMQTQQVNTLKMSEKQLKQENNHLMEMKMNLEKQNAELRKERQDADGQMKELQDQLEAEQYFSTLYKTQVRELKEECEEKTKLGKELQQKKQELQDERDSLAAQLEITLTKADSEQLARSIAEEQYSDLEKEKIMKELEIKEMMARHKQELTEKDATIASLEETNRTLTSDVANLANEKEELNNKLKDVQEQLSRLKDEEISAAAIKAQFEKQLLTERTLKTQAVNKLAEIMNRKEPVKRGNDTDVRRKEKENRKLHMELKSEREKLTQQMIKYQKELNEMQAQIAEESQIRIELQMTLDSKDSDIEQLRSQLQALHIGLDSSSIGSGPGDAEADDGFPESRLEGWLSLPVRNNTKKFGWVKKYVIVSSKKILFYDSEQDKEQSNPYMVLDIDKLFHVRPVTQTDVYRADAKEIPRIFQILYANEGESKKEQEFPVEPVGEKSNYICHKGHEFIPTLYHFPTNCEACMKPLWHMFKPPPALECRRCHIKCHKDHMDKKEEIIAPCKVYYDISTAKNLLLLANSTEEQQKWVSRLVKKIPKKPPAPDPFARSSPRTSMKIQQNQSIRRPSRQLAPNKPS
Chain of Serine/threonine-protein kinase MRCK alpha (Q5VT25 whole entry): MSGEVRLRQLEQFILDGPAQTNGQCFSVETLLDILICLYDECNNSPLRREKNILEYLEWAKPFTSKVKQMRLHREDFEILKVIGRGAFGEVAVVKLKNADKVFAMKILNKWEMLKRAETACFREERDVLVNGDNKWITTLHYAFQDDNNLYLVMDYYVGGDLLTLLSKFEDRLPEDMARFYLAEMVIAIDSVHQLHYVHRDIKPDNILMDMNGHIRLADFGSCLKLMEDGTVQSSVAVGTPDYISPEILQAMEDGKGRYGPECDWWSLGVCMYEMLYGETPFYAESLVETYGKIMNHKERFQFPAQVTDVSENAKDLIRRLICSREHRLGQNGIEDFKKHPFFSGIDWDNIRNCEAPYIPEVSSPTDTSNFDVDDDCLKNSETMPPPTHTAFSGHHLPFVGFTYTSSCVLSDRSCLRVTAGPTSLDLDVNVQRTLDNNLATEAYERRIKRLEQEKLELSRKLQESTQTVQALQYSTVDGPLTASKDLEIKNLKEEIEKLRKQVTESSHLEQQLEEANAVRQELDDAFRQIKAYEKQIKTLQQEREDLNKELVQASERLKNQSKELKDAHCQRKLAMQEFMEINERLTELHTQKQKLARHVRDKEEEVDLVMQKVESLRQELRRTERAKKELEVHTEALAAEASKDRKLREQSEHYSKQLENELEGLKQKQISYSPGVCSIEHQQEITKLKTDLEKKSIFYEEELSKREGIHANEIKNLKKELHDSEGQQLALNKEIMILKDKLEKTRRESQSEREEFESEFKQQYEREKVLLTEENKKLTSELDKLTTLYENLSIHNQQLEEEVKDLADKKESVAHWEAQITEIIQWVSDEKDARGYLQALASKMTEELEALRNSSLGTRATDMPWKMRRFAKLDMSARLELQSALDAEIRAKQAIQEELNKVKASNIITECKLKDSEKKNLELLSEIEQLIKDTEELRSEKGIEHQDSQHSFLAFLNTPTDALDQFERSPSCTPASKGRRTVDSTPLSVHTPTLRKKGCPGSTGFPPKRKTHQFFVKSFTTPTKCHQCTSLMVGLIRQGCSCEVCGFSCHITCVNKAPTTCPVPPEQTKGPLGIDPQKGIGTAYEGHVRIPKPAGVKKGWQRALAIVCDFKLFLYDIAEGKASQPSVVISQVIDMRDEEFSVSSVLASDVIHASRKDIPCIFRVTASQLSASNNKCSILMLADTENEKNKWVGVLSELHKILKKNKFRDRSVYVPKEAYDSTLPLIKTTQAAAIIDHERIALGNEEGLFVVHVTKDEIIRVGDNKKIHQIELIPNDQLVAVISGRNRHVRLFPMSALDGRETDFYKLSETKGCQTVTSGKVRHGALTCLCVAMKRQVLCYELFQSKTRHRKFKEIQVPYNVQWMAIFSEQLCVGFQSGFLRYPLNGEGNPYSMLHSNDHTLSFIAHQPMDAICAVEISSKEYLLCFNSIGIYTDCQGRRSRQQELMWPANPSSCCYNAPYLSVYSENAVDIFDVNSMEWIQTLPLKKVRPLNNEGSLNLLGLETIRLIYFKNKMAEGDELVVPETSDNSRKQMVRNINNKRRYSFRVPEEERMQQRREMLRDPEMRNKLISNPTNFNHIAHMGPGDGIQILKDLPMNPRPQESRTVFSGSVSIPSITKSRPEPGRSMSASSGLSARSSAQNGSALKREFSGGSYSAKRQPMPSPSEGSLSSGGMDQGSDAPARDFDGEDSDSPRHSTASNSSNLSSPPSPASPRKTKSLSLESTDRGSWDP

On to `c1ccc2c(c1)CC(c1nc3c(OCCN4CCOCC4)cc(-c4cn[nH]c4)cc3s1)CO2` (centres undefined), for which the concentration for half-maximal inhibition (IC50) in series [1] is greater than 5000 nM; in [2] it was 314 nM.
As to `CN(C)CCOc1cc(-c2cn[nH]c2)cc2sc(C3COc4ccccc4C3)nc12` (centres undefined), in series [3], the Selectivity ratio is greater than 75. Further, the values for the half-maximal inhibitory concentration (IC50) in series [1], in [4] and in [2] were greater than 5000 nM, 365 nM and 66 nM, respectively.
Consider `CN(C)CCN(C)c1cc(-c2cn[nH]c2)cc2sc(C3COc4ccccc4C3)nc12` (centres undefined), for which, in series [3], the Selectivity ratio was 12. For the same compound, the values for the IC50 in [1], in [4] and in series [2] were 702 nM, 365 nM and 51 nM, respectively.
Regarding `Cc1cc(-c2ccc3nc(C4COc5ccccc5C4)sc3c2)ccn1` (centres undefined), the results for the 50% inhibitory concentration (IC50) in series [1] and in series [2] were 7990 nM and 1200 nM, respectively.
Taken in the same sequence, the figures for `Cc1ccc2c(c1)CC(c1nc3ccc(-c4cn[nH]c4)cc3s1)CO2` (centres undefined) were greater than 20000 nM and 93 nM.
As to `Nc1nccc(-c2ccc3nc(C4COc5ccccc5C4)sc3c2)n1` (centres undefined), the half-life is 23 min in series [5] and 47 min in series [6]. In addition, in series [3], the Selectivity ratio was 17. The IC50 in [1] was determined as 156 nM; in series [4], 1500 nM; in [2] it was 9 nM.
For `COc1cccc(CN(C(=O)c2nc3ccc(-c4cn[nH]c4)cc3s2)C2CC2)c1`, the IC50 in series [1] stood at 19600 nM; in [2], 94 nM.
As to `c1ccc2c(c1)CC(c1nc3ccc(-c4ccncc4)cc3s1)CO2` (centres undefined), the Selectivity ratio in [3] is 25. For the same compound, the results for the IC50 in [1] and in series [2] were 1100 nM and 42 nM, respectively.
As to `COc1cccc(CN(CCN(C)C)C(=O)c2nc3ccc(-c4cn[nH]c4)cc3s2)c1`, the half-maximal inhibitory concentration (IC50) was greater than 20000 nM in [7]; 3.5 nM in series [8]; 13800 nM in [9]; 45 nM in series [1]; less than 6 nM in series [4]; 247 nM in [11]. The IC50 in series [2] amounted to 0.4 nM. In addition, in series [3], the Selectivity ratio is greater than 100. Further, the half-life in [6] was determined as 15 min. The bioavailability in series [10] was 0%. This compound also came in with a clearance in series [12] of 50 mL/min/kg.
`COc1ccc2c(c1)CC(c1nc3ccc(-c4cn[nH]c4)cc3s1)CO2` (centres undefined): the IC50 in series [1] is greater than 20000 nM; in series [4], greater than 2700 nM; in series [2] it was 45 nM.
Consider `Fc1ccc2c(c1)CC(c1nc3ccc(-c4cn[nH]c4)cc3s1)CO2` (centres undefined), for which the IC50 worked out at 1930 nM in [1], 1480 nM in series [4] and 38 nM in series [2].
For the compound `COc1cc(-c2cn[nH]c2)cc2sc(C3COc4ccccc4C3)nc12` (centres undefined), the IC50 is greater than 5000 nM in series [1], 1240 nM in [4] and 32 nM in [2].
Turning to `COc1cccc(CNC(=O)c2nc3ccc(-c4cn[nH]c4)cc3s2)c1`, in series [3], the Selectivity ratio worked out at 300. Also, the half-inhibitory concentration (IC50) is 5290 nM in [1], greater than 2700 nM in series [4] and 18 nM in series [2].
On to `O=C(NCc1ccccc1)c1nc2ccc(-c3cn[nH]c3)cc2s1`, for which the IC50 stood at 4640 nM in [1] and 53 nM in series [2].
Consider `Cc1n[nH]cc1-c1ccc2nc(C3COc4ccccc4C3)sc2c1` (centres undefined), for which the IC50 in series [1] amounted to 404 nM; in series [2], 25 nM.
For `CN(C)CCCNC(=O)c1ccc2c(c1)CC(c1nc3ccc(-c4cn[nH]c4)cc3s1)CO2` (centres undefined), the IC50 was greater than 20000 nM in series [7]; 2 nM in series [8]; 5460 nM in [9]; 765 nM in series [1]; less than 4 nM in [4]; 9550 nM in [11]. The same compound gave an IC50 in [2] of 0.9 nM. In [3], the Selectivity ratio worked out at 847. The half-life in [6] amounted to 34 min.
Regarding `COC(=O)c1ccc2c(c1)CC(c1nc3ccc(-c4cn[nH]c4)cc3s1)CO2` (centres undefined), the results for the IC50 in [1], in [4] and in series [2] were greater than 5000 nM, 1480 nM and 59 nM, respectively.
In the case of `Fc1cc2nc(C3COc4ccccc4C3)sc2cc1-c1cn[nH]c1` (centres undefined), the IC50 in series [1] was 537 nM; in series [4], greater than 2700 nM; in series [2] it was 47 nM.
Taken in the same sequence, the figures for `COCCN(Cc1cccc(OC)c1)C(=O)c1nc2ccc(-c3cn[nH]c3)cc2s1` were greater than 20000 nM, 871 nM and 10 nM.
As for `O=C(NCc1cccc(F)c1)c1nc2ccc(-c3cn[nH]c3)cc2s1`, the half-maximal inhibitory concentration (IC50) turned out to be 2680 nM in [1] and 72 nM in series [2].
Take `COc1cccc(CN(C)C(=O)c2nc3ccc(-c4cn[nH]c4)cc3s2)c1`: the IC50 is greater than 20000 nM in series [1] and 59 nM in series [2].
`CCN(Cc1cccc(OC)c1)C(=O)c1nc2ccc(-c3cn[nH]c3)cc2s1`: the IC50 in series [7] is greater than 20000 nM; in series [8], 180 nM; in series [9], greater than 20000 nM; in [1] it was 16300 nM; in series [4] it was 455 nM; in [11], 7860 nM. Besides, the IC50 in series [2] stood at 26 nM.
Regarding `c1ccc2c(c1)CC(c1nc3ccc(-c4cn[nH]c4)cc3s1)CO2` (centres undefined), the Selectivity ratio in [3] turned out to be 30. The IC50 amounted to 341 nM in [1], 1550 nM in [4] and 11 nM in [2].
With `c1ccc2c(c1)CC(c1nc3c(OCCC4CCOC4)cc(-c4cn[nH]c4)cc3s1)CO2` (centres undefined), the IC50 in series [1] is greater than 5000 nM; in series [2] it was 500 nM.
With `CN(C)CCNC(=O)c1ccc2c(c1)CC(c1nc3ccc(-c4cn[nH]c4)cc3s1)CO2` (centres undefined), the Selectivity ratio in [3] was 83. In [6], the half-life stood at 35 min. Further, the IC50 in [1] was determined as 582 nM; in series [4], 20 nM; in series [2], 7 nM.
`Fc1cc(-c2cn[nH]c2)cc2sc(C3COc4ccccc4C3)nc12` (centres undefined): the Selectivity ratio in [3] was 43. Further, the IC50 is 644 nM in [1], greater than 2700 nM in series [4] and 14 nM in [2].
With `Clc1ccc2c(c1)CC(c1nc3ccc(-c4cn[nH]c4)cc3s1)CO2` (centres undefined), the IC50 in series [1] came to 1780 nM; in series [2] it was 75 nM.

These data come from ChEMBL document CHEMBL1154368, “Benzothiazoles as Rho-associated kinase (ROCK-II) inhibitors” (Bioorg Med Chem Lett, 2009).
